Where a name gives a salt, the structure may show the parent alone.
How the values were obtained:
Male NMRI mice = test: phenylquinone-induced writhing in mice (analgesic efficacy); assay type: in vivo; conditions: 10 mg/kg i.v., phenylquinone i.p. 10 minutes after compound, writhing counted 5-20 minutes after phenylquinone
Procedure: The investigation into analgesic efficacy was performed by phenylquinone-induced writhing in mice (modified after: I. C. Hendershot, J. Forsaith, J. Pharmacol. Exp. There. 125, 237-240 (1959)). The corresponding literature description is hereby introduced as a reference and is deemed to be part of the disclosure.
Male NMRI mice weighing from 25 to 30 g were used for this purpose. Groups of 10 animals per substance dose received, 10 minutes after intravenous administration of the compounds tested, 0.3 ml/mouse of a 0.02% aqueous solution of phenylquinone (phenylbenzoquinone, Sigma, Deisenhofen; solution prepared with addition of 5% of ethanol and stored in a water bath at 45° C.) administered intraperitoneally. The animals were placed individually in observation cages. A push button counter was used to record the number of pain-induced stretching movements (writhing reactions=straightening of the torso with stretching of the rear extremities) for 5-20 minutes after phenylquinone administration. The control was provided by animals which received only physiological common salt solution.
The compounds were tested at the standard dosage of 10 mg/kg. Inhibition of the writhing reactions by a substance was calculated according to the following formula: [formula]
The in-depth investigation into analgesic efficacy was performed using phenylquinone-induced writhing in mice, as described above.

Row | SMILES | % inhibition of writhing reactions (Male NMRI mice) [%] | melting point [°C]
1 | COc1cccc(C2(O)CCC(NC(=O)c3nc4cc(C)c(C)cc4[nH]c3=O)CC2CN(C)C)c1 (centres unmarked) [Example 1, 6,7-dimethyl-3-oxo-3,4-dihydroquinoxaline 2-carboxylic acid [3′-(N,N-dimethylaminomethyl)-4′-hydroxy-4′-(m-methoxyphenyl)-cyclohexyl]amide hydrochloride] | 72 | –
2 | COc1cccc(C2(O)CCC(NC(=O)c3nc4cc(Cl)c(Cl)cc4[nH]c3=O)CC2CN(C)C)c1 (centres unmarked) [Example 2, 6,7-dichloro-3-oxo-3,4-dihydroquinoxaline 2-carboxylic acid [3′-(N,N-dimethylaminomethyl)-4′-hydroxy-4′-(m-methoxyphenyl)-cyclohexyl]amide] | 55 | –
3 | COc1cccc(C2(O)CCC(OC(=O)c3nc4cc(C)c(C)cc4[nH]c3=O)CC2CN(C)C)c1 (centres unmarked) [Example 3, 6,7-dimethyl-3-oxo-3,4-dihydroquinoxaline 2-carboxylic acid [3′-(N,N-dimethylaminomethyl)-4′-hydroxy-4′-(m-methoxyphenyl)-cyclohexyl] ester] | 90 | –
4 | COc1cccc(C2(O)CCC(OC(=O)c3nc4cc(Cl)c(Cl)cc4[nH]c3=O)CC2CN(C)C)c1 (centres unmarked) [Example 4, 6,7-dichloro-3-oxo-3,4-dihydroquinoxaline 2-carboxylic acid [3′-(N,N-dimethylaminomethyl)-4′-hydroxy-4′-(m-methoxyphenyl)-cyclohexyl] ester] | 84 | 175 to 177

Reference: patent publication US20040224954A1, “Substituted 1H-quinoxalin-2-one compounds and substituted 4-aryl- and 4-heteroarylcyclohexane compounds” (priority 2001, published 2004)
